Structures can show the parent of a compound that is named as a salt.
Assays:
[1] = target: PI3Kγ (p110γ) Recombinant Human Protein (Homo sapiens (Human), UniProt P48736); assay: PI3K-γ Scintillation Proximity Assay; assay type: biochemical; details: 20 μM PIP2, 2 μM ATP, 13 nM PI3Kγ, 120 min; read-out: PI3K-gamma SPA IC50
Experimental: [γ-^33P]ATP (10 mCi/mL) and Wheat Germ Agglutinin (WGA) YSi SPA Scintillation Beads was purchased from Perkin-Elmer (Waltham, Mass.). […] PI3Kγ (p110γ) Recombinant Human Protein was purchased from Life technology (Grand Island, N.Y.). ATP, MgCl2, DTT, EDTA, MOPS and CHAPS were purchased from Sigma-Aldrich (St. Louis, Mo.).
The kinase reaction was conducted in polystyrene 384-well Greiner Bio-one white plate from Thermo Fisher Scientific in a final volume of 25 μL. Inhibitors were first diluted serially in DMSO and added to the plate wells before the addition of other reaction components. The final concentration of DMSO in the assay was 2%. The PI3Kγ assay was carried out at room temperature in 20 mM MOPS, pH 6.7, 10 mM MgCl2, 5 mM DTT and CHAPS 0.03%. Reactions were initiated by the addition of ATP, the final reaction mixture consisted of 20 μM PIP2, 2 μM ATP, 0.5 μCi [γ-^33P] […] The final concentration of SPA beads is 1.0 mg/mL. After the plate sealing, plates were shaken overnight at room temperature and centrifuged at 1500 rpm for 10 min, the radioactivity of the product was determined by scintillation counting on Topcount (Perkin-Elmer). IC50 determination was performed by fitting the curve of percent of the solvent control activity versus the log of the inhibitor concentration using the GraphPad Prism 6.0 software.

[2] = target: PI3Kδ (p110δ/p85α) Recombinant Human Protein (Homo sapiens (Human), UniProt O00329); assay: PI3Kδ Scintillation Proximity Assay; assay type: biochemical; details: 20 μM PIP2, 2 μM ATP, 3.4 nM PI3Kδ, 120 min; read-out: PI3K-delta SPA IC50
From the text: [γ-^33P]ATP (10 mCi/mL) and Wheat Germ Agglutinin (WGA) YSi SPA Scintillation Beads was purchased from Perkin-Elmer (Waltham, Mass.). Lipid kinase substrate, D-myo-Phosphatidylinositol 4,5-bisphosphate (PtdIns(4,5)P2)D (+)-sn-1,2-di-O-octanoylglyceryl, 3-O-phospho linked (PIP2), CAS 204858-53-7, was purchased from Echelon Biosciences (Salt Lake City, Utah). PI3Kδ (p110δ/p85α) Recombinant Human Protein was purchased from Eurofins (St Charles, Mo.). ATP, MgCl2, DTT, EDTA, MOPS and CHAPS were purchased from Sigma-Aldrich (St. Louis, Mo.).
The kinase reaction was conducted in polystyrene 384-well Greiner Bio-one white plate from Thermo Fisher Scientific in a final volume of 25 μL. Inhibitors were first diluted serially in DMSO and added to the plate wells before the addition of other reaction components. The final concentration of DMSO in the assay was 2%. The PI3Kδ assay was carried out at room temperature in 20 mM MOPS, pH 6.7, 10 mM MgCl2, 5 mM DTT and CHAPS 0.03%. Reactions were initiated by the addition of ATP, the final reaction mixture consisted of 20 μM PIP2, 2 μM ATP, 0.5 μCi [γ-^33P] ATP, 3.4 nM PI3Kδ. Reactions were incubated for 120 min and terminated by the addition of 40 μL SPA beads suspended in quench buffer: 163 mM potassium phosphate pH 7.8, 20% glycerol, 25 mM EDTA. The final concentration of SPA beads is 1.0 mg/mL. After the plate sealing, plates were shaken overnight at room temperature and centrifuged at 1500 rpm for 10 min, the radioactivity of the product was determined by scintillation counting on Topcount (Perkin-Elmer). IC50 determination was performed by fitting the curve of percent of the solvent control activity versus the log of the inhibitor concentration using the GraphPad Prism 6.0 software.

Sequence of PI3Kγ (p110γ) Recombinant Human Protein (P48736 whole entry): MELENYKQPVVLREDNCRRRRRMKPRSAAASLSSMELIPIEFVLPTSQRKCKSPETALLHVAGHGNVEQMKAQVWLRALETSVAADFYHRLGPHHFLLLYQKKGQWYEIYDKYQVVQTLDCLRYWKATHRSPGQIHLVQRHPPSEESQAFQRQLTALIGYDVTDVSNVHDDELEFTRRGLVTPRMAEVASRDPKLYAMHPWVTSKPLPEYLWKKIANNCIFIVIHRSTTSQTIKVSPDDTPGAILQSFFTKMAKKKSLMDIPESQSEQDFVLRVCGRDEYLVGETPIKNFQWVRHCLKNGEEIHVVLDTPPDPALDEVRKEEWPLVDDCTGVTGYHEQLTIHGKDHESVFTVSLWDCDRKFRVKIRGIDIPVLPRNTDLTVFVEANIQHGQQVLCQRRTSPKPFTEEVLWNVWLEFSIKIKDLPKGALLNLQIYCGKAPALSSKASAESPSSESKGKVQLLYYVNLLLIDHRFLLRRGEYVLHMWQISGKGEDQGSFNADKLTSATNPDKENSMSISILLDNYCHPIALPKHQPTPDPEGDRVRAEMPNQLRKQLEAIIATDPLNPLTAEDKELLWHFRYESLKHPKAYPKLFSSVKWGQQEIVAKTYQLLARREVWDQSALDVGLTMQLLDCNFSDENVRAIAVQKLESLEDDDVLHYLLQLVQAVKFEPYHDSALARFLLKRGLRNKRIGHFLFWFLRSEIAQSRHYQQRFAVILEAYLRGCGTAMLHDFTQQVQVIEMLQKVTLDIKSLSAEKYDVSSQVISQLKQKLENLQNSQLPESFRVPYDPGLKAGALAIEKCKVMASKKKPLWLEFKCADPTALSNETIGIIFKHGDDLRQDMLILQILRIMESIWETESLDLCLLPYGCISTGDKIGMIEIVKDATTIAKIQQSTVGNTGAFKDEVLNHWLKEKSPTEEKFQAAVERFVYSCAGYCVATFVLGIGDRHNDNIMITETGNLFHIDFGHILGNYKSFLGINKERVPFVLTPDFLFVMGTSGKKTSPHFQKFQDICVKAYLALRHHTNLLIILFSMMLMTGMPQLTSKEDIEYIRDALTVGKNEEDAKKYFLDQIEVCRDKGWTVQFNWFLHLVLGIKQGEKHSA
Sequence of PI3Kδ (p110δ/p85α) Recombinant Human Protein (O00329 whole entry): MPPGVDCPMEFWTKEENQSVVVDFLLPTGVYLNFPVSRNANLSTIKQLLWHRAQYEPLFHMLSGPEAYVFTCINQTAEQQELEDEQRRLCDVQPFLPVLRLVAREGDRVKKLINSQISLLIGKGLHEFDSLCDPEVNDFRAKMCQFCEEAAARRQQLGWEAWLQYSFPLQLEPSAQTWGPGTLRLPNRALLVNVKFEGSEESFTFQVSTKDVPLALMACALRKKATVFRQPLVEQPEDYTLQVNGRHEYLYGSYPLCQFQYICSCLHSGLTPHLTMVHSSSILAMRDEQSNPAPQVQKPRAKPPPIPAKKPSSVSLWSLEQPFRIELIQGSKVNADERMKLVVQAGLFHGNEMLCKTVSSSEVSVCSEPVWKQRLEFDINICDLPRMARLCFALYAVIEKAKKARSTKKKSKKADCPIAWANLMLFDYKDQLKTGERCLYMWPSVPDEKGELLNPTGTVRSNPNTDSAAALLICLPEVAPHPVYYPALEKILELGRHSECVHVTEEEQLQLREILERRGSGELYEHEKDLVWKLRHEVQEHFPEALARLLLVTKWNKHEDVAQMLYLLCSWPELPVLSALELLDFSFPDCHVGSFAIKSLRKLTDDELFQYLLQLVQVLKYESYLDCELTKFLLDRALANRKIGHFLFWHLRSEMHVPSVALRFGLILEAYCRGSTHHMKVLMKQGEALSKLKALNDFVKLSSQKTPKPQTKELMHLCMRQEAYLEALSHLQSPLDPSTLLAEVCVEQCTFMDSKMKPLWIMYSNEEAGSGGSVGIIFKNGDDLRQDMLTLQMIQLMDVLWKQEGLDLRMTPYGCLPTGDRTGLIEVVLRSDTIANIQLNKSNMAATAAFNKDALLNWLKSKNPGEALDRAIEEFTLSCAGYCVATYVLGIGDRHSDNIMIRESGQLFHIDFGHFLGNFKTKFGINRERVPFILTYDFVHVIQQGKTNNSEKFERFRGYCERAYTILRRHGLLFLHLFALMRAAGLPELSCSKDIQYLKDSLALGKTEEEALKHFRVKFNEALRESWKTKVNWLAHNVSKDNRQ
Sequence of PI3Kδ (p110δ/p85α) Recombinant Human Protein (P27986 whole entry partner): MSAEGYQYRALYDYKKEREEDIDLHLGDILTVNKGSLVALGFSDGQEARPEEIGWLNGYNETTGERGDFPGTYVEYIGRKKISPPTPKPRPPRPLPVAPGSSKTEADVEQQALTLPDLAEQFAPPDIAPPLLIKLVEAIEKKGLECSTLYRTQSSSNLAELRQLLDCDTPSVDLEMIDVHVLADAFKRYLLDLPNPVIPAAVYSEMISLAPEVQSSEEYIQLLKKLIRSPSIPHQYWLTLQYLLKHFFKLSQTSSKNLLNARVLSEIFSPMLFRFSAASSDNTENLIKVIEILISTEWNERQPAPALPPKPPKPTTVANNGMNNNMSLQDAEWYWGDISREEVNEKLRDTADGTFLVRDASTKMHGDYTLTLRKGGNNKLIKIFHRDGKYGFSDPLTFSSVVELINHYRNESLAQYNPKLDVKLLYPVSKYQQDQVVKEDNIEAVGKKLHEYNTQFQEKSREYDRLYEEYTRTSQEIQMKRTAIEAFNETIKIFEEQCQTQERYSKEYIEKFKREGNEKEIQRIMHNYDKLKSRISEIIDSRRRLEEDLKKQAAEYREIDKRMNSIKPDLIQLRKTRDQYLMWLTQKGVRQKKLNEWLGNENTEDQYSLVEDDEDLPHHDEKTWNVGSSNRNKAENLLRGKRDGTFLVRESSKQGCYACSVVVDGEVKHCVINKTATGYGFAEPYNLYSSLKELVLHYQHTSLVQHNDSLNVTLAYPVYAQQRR

IC50 [1] [nM]	IC50 [2] [µM]	Compound
< 5000	≥ 5	COc1cncc(-c2ccc3nc(-c4cc(-c5ccccc5)n[nH]4)oc3c2)c1 [Example 47, 6-(5-Methoxypyridin-3-yl)-2-(3-phenyl-1H-pyrazol-5-yl)benzo[d]oxazole]
< 250	≥ 5	COc1cc(-c2ccc3nc(-c4nc5ccccc5[nH]4)oc3c2)cnc1F [Example 69, 2-(1H-Benzo[d]imidazol-2-yl)-6-(6-fluoro-5-methoxypyridin-3-yl)benzo[d]oxazole bis(trifluoroacetate)]
< 250	≥ 5	O=S(=O)(c1cncc(-c2ccc3nc(-c4nc5ccccc5[nH]4)oc3c2)c1)N1CCOCC1 [Example 38, 2-(1H-Benzo[d]imidazol-2-yl)-6-(5-(morpholinosulfonyl)pyridin-3-yl)benzo[d]oxazole]
< 250	< 0.25	O=S(=O)(Nc1cncc(-c2ccc3nc(-c4ncc[nH]4)oc3c2)c1)c1ccc(F)cc1 [Example 39, N-(5-(2-(1H-Imidazol-2-yl)benzo[d]oxazol-6-yl)pyridin-3-yl)-4-fluorobenzenesulfonamide]
< 250	< 0.25	O=S(=O)(Nc1cncc(-c2ccc3nc(-c4nc5ccccc5[nH]4)oc3c2)c1)c1ccc(F)cc1 [Example 17, N-(5-(2-(1H-Benzo[d]imidazol-2-yl)benzo[d]oxazol-6-yl)pyridin-3-yl)-4-fluorobenzenesulfonamide]
< 1000	< 5	O=C(O)Cc1cncc(-c2ccc3nc(-c4nc5ccccc5[nH]4)oc3c2)c1 [Example 71, 2-(5-(2-(1H-Benzo [d]imidazol-2-yl)benzo[d]oxazol-6-yl)pyridin-3-yl)acetic acid]
< 250	< 1	FC(F)Oc1cncc(-c2ccc3nc(-c4nc5ccccc5[nH]4)oc3c2)c1 [Example 16, 2-(1H-Benzo[d]imidazol-2-yl)-6-(5-(difluoromethoxy)pyridin-3-yl)benzo[d]oxazole]
> 5000	≥ 5	CCc1ncc(-c2nc3ccc(-c4cncc(OC)c4)cc3o2)[nH]1 [Example 45, 2-(2-Ethyl-1H-imidazol-5-yl)-6-(5-methoxy-pyridin-3-yl)benzo[d] oxazole]
< 1000	< 5	COc1cncc(-c2ccc3nc(-c4cnc(C5CC5)[nH]4)oc3c2)c1 [Example 42, 2-(2-Cyclopropyl-1H-imidazol-5-yl)-6-(5-methoxypyridin-3-yl)benzo[d]oxazole]
< 250	< 1	O=S(=O)(Nc1cncc(-c2ccc3nc(-c4nc5ccccc5[nH]4)oc3c2)c1)N1CCCCC1 [Example 20, N-(5-(2-(1H-Benzo[d]imidazol-2-yl)benzo[d]oxazol-6-yl)pyridin-3-yl)piperidine-1-sulfonamide]
> 5000	≥ 5	COc1cncc(-c2ccc3nc(-c4cc(C)n[nH]4)oc3c2)c1 [Example 46, 6-(5-Methoxypyridin-3-yl)-2-(3-methyl-1H-pyrazol-5-yl)benzo[d]oxazole]
< 5000	≥ 5	Brc1ccc2nc(-c3nc4ccccc4[nH]3)oc2c1 [Example 13, 2-(1H-Benzo[d]imidazol-2-yl)-6-bromobenzo[d]oxazole]
< 250	≥ 5	Nc1ncc(-c2ccc3nc(-c4nc5ccccc5[nH]4)oc3c2)cc1C(F)(F)F [Example 56, 5-[2-(1H-Benzimidazol-2-yl)-1,3-benzoxazol-6-yl]-3-(trifluoromethyl)pyridin-2-amine bis(trifluoroacetate)]
< 250	< 0.25	CCS(=O)(=O)Nc1cc(-c2ccc3nc(-c4nc5ccccc5[nH]4)oc3c2)cnc1OC [Example 79, N-(5-(2-(1H-Benzo [d]imidazol-2-yl)benzo[d]oxazol-6-yl)-2-methoxypyridin-3-yl)ethanesulfonamide bis(trifluoroacetate)]
< 250	< 0.25	OC(c1cncc(-c2ccc3nc(-c4ncc[nH]4)oc3c2)c1)C(F)(F)F (centres unmarked) [Example 61, 1-(5-(2-(1H-Imidazol-2-yl)benzo[d]oxazol-6-yl)pyridin-3-yl)-2,2,2-trifluoroethanol bis(trifluoroacetate)]
< 250	< 0.25	CCS(=O)(=O)Nc1cc(-c2ccc3nc(-c4nc5ccccc5[nH]4)oc3c2)cnc1C [Example 25, N-(5-(2-(1H-Benzo[d]imidazol-2-yl)benzo[d]oxazol-6-yl)-2-methylpyridin-3-yl)ethanesulfonamide]
< 250	< 0.25	CCS(=O)(=O)n1ncc2ccc(-c3ccc4nc(-c5nc6ccccc6[nH]5)oc4c3)cc21 [Example 52, 6-[1-(Ethylsulfonyl)-1H-indazol-6-yl]-2-(1H-benzimidazol-2-yl)-1,3-benzoxazole]
< 250	≥ 5	COc1cncc(-c2ccc3nc(-c4nc5c(C)cccc5[nH]4)oc3c2)c1 [Example 12, 6-(5-Methoxypyridin-3-yl)-2-(4-methyl-1H-benzo[d]imidazol-2-yl)benzo[d]oxazole]
< 1000	< 5	COc1cncc(-c2ccc3nc(-c4ncc[nH]4)oc3c2)c1 [Example 1, 2-(1H-Imidazol-2-yl)-6-(5-methoxypyridin-3-yl)benzo[d]oxazole trifluoroacetate]
< 250	< 1	CN(C)S(=O)(=O)c1cncc(-c2ccc3nc(-c4nc5ccccc5[nH]4)oc3c2)c1 [Example 37, 5-[2-(1H-benzimidazol-2-yl)-1,3-benzoxazol-6-yl]-N,N-dimethylpyridine-3-sulfonamide]
< 1000	–	COc1cncc(-c2ccc3nc(-c4nc5ccc(Br)cc5[nH]4)oc3c2)c1 [Example 8, 2-(6-Bromo-1H-benzo[d]imidazol-2-yl)-6-(5-methoxypyridin-3-yl)benzo[d]oxazole]

Compound	IC50 [1] [nM]	IC50 [2] [µM]
O=S(=O)(CC(F)(F)F)Nc1cc(-c2ccc3nc(-c4nc5ccccc5[nH]4)oc3c2)cnc1F [Example 75, N-(5-(2-(1H-Benzo [d]imidazol-2-yl)benzo[d]oxazol-6-yl)-2-fluoropyridin-3-yl)-2,2,2-trifluoro-ethanesulfonamide bis(trifluoroacetate)]	< 250	< 0.25
COc1cncc(-c2ccc3nc(-c4nc5ccccc5[nH]4)sc3c2)c1 [Example 6, 2-(1H-Benzo[d]imidazol-2-yl)-6-(5-methoxypyridin-3-yl)benzo[d]thiazole trifluoroacetate]	> 5000	≥ 5
CCS(=O)(=O)N(C)c1cncc(-c2ccc3nc(-c4nc5ccccc5[nH]4)oc3c2)c1 [Example 73, N-(5-(2-(1H-Benzo [d]imidazol-2-yl)benzo [d]oxazol-6-yl)pyridin-3-yl)-N-methylethanesulfonamide bis(trifluoroacetate)]	< 250	< 5
O=S(=O)(CC(F)(F)F)Nc1cncc(-c2ccc3nc(-c4nc5ccccc5[nH]4)oc3c2)c1 [Example 77, N-(5-(2-(1H-Benzo [d]imidazol-2-yl)benzo[d]oxazol-6-yl)pyridin-3-yl)-2,2,2-trifluoro-ethanesulfonamide bis(trifluoroacetate)]	< 250	< 1
COc1cncc(-c2ccc3nc(-c4cnc[nH]4)oc3c2)c1 [Example 2, 2-(1H-Imidazol-5-yl)-6-(5-methoxypyridin-3-yl)benzo[d]oxazole trifluoroacetate]	< 5000	< 5
Cc1ncc(-c2ccc3nc(-c4nc5ccccc5[nH]4)oc3c2)cc1NS(=O)(=O)CC(F)(F)F [Example 76, N-(5-(2-(1H-Benzo [d]imidazol-2-yl)benzo[d]oxazol-6-yl)-2-methylpyridin-3-yl)-2,2,2-trifluoro-ethanesulfonamide bis(trifluoroacetate)]	< 250	< 0.25

Reference: US9586949B2, “Aza-heteroaryl compounds as PI3K-gamma inhibitors” (Incyte Corporation, priority 2015, dated 2017)
